Data on three compounds can be found in paper PMC12921516 (ACS Bio & Med Chem Au, 2025).

A word on the IC50: it is the concentration needed to halve the response being measured. Low readings indicate greater potency, high ones weaker potency.

Structures are written as SMILES. “Also recorded” adds a separate entry of the source. Bounds are passed on as bounds.

For test [1], the system named is STZ-induced diabetic CD-1 mice. The test can be described thus: Insulin tolerance test (ITT). In kind it is in vivo. The settings on record: for glycemia variation in ITT: single intragastric dose 50 mg/kg, insulin 0.75 IU after 30 min. How it is done: The studies were carried out on compounds 4b, 4g, and 5g using both normoglycemic CD1 mice and a mouse model of noninsulin-dependent diabetes mellitus (NIDDM). An oral glucose tolerance test (OGTT) was conducted on the normoglycemic mice to evaluate the hypoglycemic activity of the compounds, while an insulin tolerance test (ITT) was performed on hyperglycemic CD1 mice to assess the compounds' capacity to enhance insulin sensitivity in streptozotocin-induced diabetic mice. Pioglitazone and GA were included as positive controls. […] Healthy six-week-old male CD-1 mice, weighing between 30 and 40 g, were maintained at a temperature of 25 ± 2 °C, under a 12-h light/dark cycle and 45-65% humidity throughout the experimental period. The mice were provided with a rodent pelleted diet (Harlan Laboratories, Indianapolis, USA) and had access to water ad libitum. Sixteen hours before the experiment, all mice were fasted but still had free access to water. All animal procedures were conducted in accordance with the Mexican Federal Regulations for Animal Experimentation and Care (SAGARPA, NOM-062-ZOO-1999, Mexico) and received approval from the Institutional Animal Care and Use Committee, following guidelines outlined in the US National Institutes of Health publication (No. 85-23, revised 1985). Streptozotocin (STZ) was dissolved in citrate buffer (pH 4.5), while nicotinamide was dissolved in a normal physiological saline solution. The noninsulin-dependent diabetes (NIDD) mouse model was induced in overnight-fasted mice through a single intraperitoneal injection of STZ (100 mg/kg). Nicotinamide was administered 15 min prior, at a dose of 20 mg/kg via intraperitoneal injection. […] Roche). […] Animals were categorized into five groups, each consisting of four mice (n = 4). The experimental groups received an oral suspension of compounds 4b, 4g, and 5g, prepared in a 10% Tween 20/water solution, at a dosage of 50 mg/kg body weight. A control group was treated with only the 10% Tween 20 solution. The final group was administered pioglitazone at a dose of 45 mg/kg, which is recognized as a reference drug for insulin sensitization. To evaluate glucose levels, blood samples were collected from the tails of the mice at 0, 30, 60, 90, and 120 min after the administration of the vehicle, test compound, or drug. Blood glucose concentration was measured using a commercial glucometer (Accu-Chek, Performa; Roche) and the enzymatic glucose dehydrogenase method. The percentage variation in glycemia was calculated by comparing the selected postadministration glycemia (G x ) with the initial value (G0) using the following formula: %[…]=[(Gx-G0)/G0]×100 where G0 represents the initial glycemia values and Gx indicates the glycemia values at +30, + 60, + 90, and +120 min, respectively. To evaluate the ability of GA derivatives to enhance insulin sensitivity in STZ-induced diabetic CD-1 mice, compounds 4b, 4g, and 5g were tested. Glycyrrhetinic acid (GA) and Pioglitazone served as positive controls. The GA derivatives and the positive controls were administered to the diabetic animals, followed by the administration of human rapid-acting insulin (0.75 IU) after 30 min. Subsequently, glucose levels were measured every 15 min.

The target in the next test is T1, hPTP1B1–400 (Homo sapiens, UniProt P18031).
T1 construct: h PTP1B 1–400 IC 50 (μM ± S.D); made in house
T1 sequence (P18031 1-400): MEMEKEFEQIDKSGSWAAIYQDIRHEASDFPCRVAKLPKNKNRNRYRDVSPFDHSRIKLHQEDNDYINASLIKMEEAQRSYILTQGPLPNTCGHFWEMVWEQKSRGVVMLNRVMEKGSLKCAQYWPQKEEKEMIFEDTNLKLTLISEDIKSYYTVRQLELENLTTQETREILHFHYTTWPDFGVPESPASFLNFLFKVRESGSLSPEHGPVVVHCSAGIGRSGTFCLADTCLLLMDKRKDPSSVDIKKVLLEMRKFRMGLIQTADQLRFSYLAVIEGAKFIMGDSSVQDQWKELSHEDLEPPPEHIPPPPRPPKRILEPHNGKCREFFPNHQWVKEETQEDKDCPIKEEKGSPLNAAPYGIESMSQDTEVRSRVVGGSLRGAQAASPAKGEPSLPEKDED
The test can be described thus: PTP1B inhibition, pNPP hydrolysis, long form. In kind it is biochemical. Particulars: pNPP substrate, 15 min 37 °C, pH 6.8; ± S.D.

In another test the target is T2, hTCPTP1–415 (Homo sapiens, UniProt P17706).
T2 construct: h TCPTP 1–415 IC 50 (μM ± S.D); made in house
T2 sequence (P17706 1-415): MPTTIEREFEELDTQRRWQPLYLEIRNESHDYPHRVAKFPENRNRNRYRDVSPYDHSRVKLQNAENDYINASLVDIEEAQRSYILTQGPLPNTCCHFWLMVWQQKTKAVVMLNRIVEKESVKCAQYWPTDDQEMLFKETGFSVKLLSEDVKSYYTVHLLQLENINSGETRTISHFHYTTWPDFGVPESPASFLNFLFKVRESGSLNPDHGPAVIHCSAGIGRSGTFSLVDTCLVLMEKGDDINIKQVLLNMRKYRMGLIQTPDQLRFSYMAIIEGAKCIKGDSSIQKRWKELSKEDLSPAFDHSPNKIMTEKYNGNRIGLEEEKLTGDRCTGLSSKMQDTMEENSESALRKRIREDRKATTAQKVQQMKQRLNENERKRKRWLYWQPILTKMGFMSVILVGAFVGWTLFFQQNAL
Nature of the test: TCPTP inhibitory activity. In kind it is biochemical. Particulars: pNPP substrate; tested up to 100 μM. How it is done:
The effectiveness and safety of a PTP1B inhibitor primarily depend on its selectivity, given that protein tyrosine phosphatases share significant structural homology within their catalytic domains. […] Ertiprotafib was also included in this study.
Aliquots of 0–10 μL of the test compounds (triplicate) were taken and incubated for 15 min at 37 °C with 85 μL of Tris buffer solution (50 mM, pH 6.8) containing PTP1B enzyme and 5 μL of p-nitrophenyl phosphate substrate (pNPP, 10 mM). The absorbance of the hydrolysis product, p-nitrophenol (pNP), was measured at 405 nm using a 96-microplate absorbance reader (Accuris SmartReader 96). The inhibitory activity was determined according to eq . %enzyme=(A405b/A405c)×100 1 Where: % enzyme is the percentage of inhibition for PTP1B or TCPTP
The IC50 was calculated using regression analysis, eq : %inhibition=A100/1+(I/IC50)^s 2 Where: A100: Maximum inhibition

For the compound `CC1(C)c2[nH]c3ccc(S(N)(=O)=O)cc3c2C[C@]2(C)[C@H]3C(=O)C=C4[C@@H]5C[C@@](C)(C(=O)O)CC[C@]5(C)CC[C@@]4(C)[C@]3(C)CC[C@@H]12` [compound 4g, (20β)-5′-Sulfamoyl-11-oxo-1′H-oleana-2,12-dieno[3,2-b]indol-29-oic Acid], the “glycemia variation in ITT” value in test [1] is given as “reduce glycemia variation starting from the 15th minute”. In addition, the values for the IC50 against hPTP1B1–400 and against hTCPTP1–415 were 2060 ± 120 nM and more than 100000 nM, respectively.
For `CC1(C)c2c(cnn2-c2ccc(S(N)(=O)=O)cc2)C[C@]2(C)[C@H]3C(=O)C=C4[C@@H]5C[C@@](C)(C(=O)O)CC[C@]5(C)CC[C@@]4(C)[C@]3(C)CC[C@@H]12` [compound 5g, (20β)-11-Oxo-2′-(4-sulfamoylphenyl)-2′H-oleana-2,12-dieno[3,2-c]pyrazol-29-oic Acid], in test [1] (50 mg/kg), the “ITT activity compared to GA” value is recorded as “greater potency than GA” and the “glycemia variation in ITT” value was “significantly reduced glucose levels; also recorded: reduce glycemia variation starting from the 15th minute”. Moreover, the “ITT activity compared to pioglitazone” value in test [1] (50 mg/kg vs pioglitazone 45 mg/kg) was “superior activity compared to pioglitazone”. Also, the “glycemic variation in ITT compared with normoglycemic mice” value in test [1] (50 mg/kg, after the 45th minute) was “no significant differences in glycemic variation”. This compound yielded an IC50 at hPTP1B1–400 of 1480 ± 180 nM. Also, the concentration for half-maximal inhibition (IC50) against hTCPTP1–415 is more than 100000 nM.
Take `CC1(C)c2[nH]c3ccc(OC(F)F)cc3c2C[C@]2(C)[C@H]3C(=O)C=C4[C@@H]5C[C@@](C)(C(=O)O)CC[C@]5(C)CC[C@@]4(C)[C@]3(C)CC[C@@H]12` [compound 4b, (20β)-5′-(Difluoromethoxy)-11-oxo-1′H-oleana-2,12-dieno[3,2-b]indol-29-oic Acid]: in test [1] (50 mg/kg), the “ITT activity compared to GA” value is given as “greater potency than GA” and the “glycemia variation in ITT” value is reported as “significantly reduced glucose levels; also recorded: reduce glycemia variation starting from the 15th minute”. On hPTP1B1–400, this compound yielded an IC50 of 1580 ± 70 nM. On hTCPTP1–415, this compound had an IC50 of more than 100000 nM.
